Active and inactive are the calls of the source. No cut-off for these calls is given here.
Legend:
[1] = Cell viability in HSF cells at 50 uM after 24 hrs by MTT assay; assay type: cell-based, Fibroblast; conditions: human, read-out: Activity
RPMI-8226 [2] = assay: Cell viability in human RPMI 8226 ECACC 87012702 cancer cells at 50 uM after 24 hrs by MTT assay; assay type: functional
RPMI-8226 [3] = assay: Cell viability in human RPMI 8226 ECACC 87012702 cancer cells at 100 uM after 24 hrs by MTT assay; assay type: functional
LS180 = assay: Induction of DNA damage in LS180 cells at 37.9 uM; assay type: functional, cell-based; conditions: Homo sapiens
[4] = Acute toxicity in mouse; assay type: organism-based; conditions: in vivo
HeLa [5] = assay: Induction of DNA damage in HeLa cells at 37.9 uM; assay type: functional, cell-based; conditions: Homo sapiens
[6] = Cytotoxicity against human LS180 cells at 50 ug/ml after 72 hrs; assay type: functional; conditions: LS180, 72 h
T47D [7] = assay: Cytotoxicity against human T47D cells at 50 ug/ml after 72 hrs; assay type: functional
[8] = Cytotoxicity against Vero cells at 10 ug/ml after 72 hrs; assay type: cell-based; conditions: chlorocebus sabaeus, read-out: Inhibition
A549 [9] = assay: Anticancer activity against human A549 cells at 50 ug/ml after 72 hrs; assay type: functional; conditions: A549, 72 h
HeLa [10] = assay: Cytotoxicity against human HeLa cells at 10 ug/ml after 72 hrs; assay type: functional
RPMI-8226 [11] = assay: Cell viability in human RPMI 8226 ECACC 87012702 cancer cells at 1 uM after 24 hrs by MTT assay; assay type: functional
A549 [12] = assay: Anticancer activity against human A549 cells at 10 ug/ml after 72 hrs; assay type: functional; conditions: A549, 72 h
[13] = Cell viability in HSF cells at 1 uM after 24 hrs by MTT assay; assay type: cell-based, Fibroblast; conditions: human, read-out: Activity
[14] = Cell viability in HSF cells at 100 uM after 24 hrs by MTT assay; assay type: functional, Homo sapiens, Fibroblast
HeLa [15] = assay: Cytotoxicity against human HeLa cells at 50 ug/ml after 72 hrs; assay type: functional
[16] = Cytotoxicity against Vero cells at 50 ug/ml after 72 hrs; assay type: cell-based; conditions: chlorocebus sabaeus, read-out: Inhibition
[17] = Cytotoxicity against human LS180 cells at 10 ug/ml after 72 hrs; assay type: functional; conditions: LS180, 72 h
T47D [18] = assay: Induction of DNA damage in T47D cells at 37.9 uM; assay type: functional, cell-based; conditions: Homo sapiens
T47D [19] = assay: Cytotoxicity against human T47D cells at 10 ug/ml after 72 hrs; assay type: functional
Jurkat = assay: Anticancer activity against human jurkat cells; assay type: functional, cell-based
HT-29 = assay: Anticancer activity against human HT 29 cells; assay type: functional, cell-based

| Compound | inhibition at 50 µg/mL [6] [%] | inhibition at 50 µg/mL (T47D [7]) [%] | cytotoxicity at 72 h, 10 ug/ml [8] [%] | inhibition at 50 µg/mL (A549 [9]) [%] | inhibition at 10 µg/mL (HeLa [10]) [%] | inhibition at 10 µg/mL (A549 [12]) [%] | inhibition at 50 µg/mL (HeLa [15]) [%] | cytotoxicity at 72 h, 50 ug/ml [16] [%] | inhibition at 10 µg/mL [17] [%] | inhibition at 10 µg/mL (T47D [19]) [%] | further results |
| --- | --- | --- | --- | --- | --- | --- | --- | --- | --- | --- | --- |
| O=c1[nH]nc2n(c1=O)CCN2c1ccc(Cl)cc1 | 35 | 1 | 0 | 15 | 2 | 0 | 26 | 7 | 50 | 5 | viability at 24 h, 50 µM [1]: 95%; Activity (RPMI-8226 [2]): 89%; Activity (RPMI-8226 [3]): 61%; Activity (LS180): Active; LD50 [4]: > 2000 mg/kg; Activity (HeLa [5]): Active; Activity (RPMI-8226 [11]): 104%; viability at 24 h, 1 µM [13]: 99%; Activity [14]: 96%; Activity (T47D [18]): Active |
| Cc1ccc(N2CCn3c2n[nH]c(=O)c3=N)cc1 | 45 | 0 | 0 | 38 | 0 | 37 | 0 | 0 | 32 | 0 | Activity (Jurkat): Active; Activity (HT-29): Active |

Reference: ChEMBL document CHEMBL1147867, “Identification of antitumour activity of novel derivatives of 8-aryl-2,6,7,8-tetrahydroimidazo[2,1-c][1,2,4]triazine-3,4-dione and 8-aryl-4-imino-2,3,7,8-tetrahydroimidazo[2,1-c][1,2,4]triazin-3(6H)-one” (Bioorg Med Chem, 2007)
